Values of other authors in patent US10786520B2, “Aminoglycoside derivatives and uses thereof in treating genetic disorders” (Eloxx Pharmaceuticals Ltd., priority 2015, dated 2020).

Tested on: human fibroblast cells

Structure (SMILES): CN[C@@H]1[C@@H](O)[C@@H](O[C@@H]2[C@@H](O)[C@H](O[C@H]3O[C@H]([C@@H](C)O)[C@@H](O)[C@H](O)[C@H]3N)[C@@H](N)C[C@H]2N)OC[C@]1(C)O [Compound G-418, G-418]
- LD50 against human fibroblast cells: 0.04 mg/mL
